In patent publication US8741912B2, “Deazapurines useful as inhibitors of Janus kinases” (Vertex Pharmaceuticals Incorporated, priority 2006, dated 2014) one finds Ki data, which are given here for one molecule.

For one assay, the target named is T1, JAK3 (Homo sapiens, UniProt P52333).
T1 sequence (P52333 1-1124): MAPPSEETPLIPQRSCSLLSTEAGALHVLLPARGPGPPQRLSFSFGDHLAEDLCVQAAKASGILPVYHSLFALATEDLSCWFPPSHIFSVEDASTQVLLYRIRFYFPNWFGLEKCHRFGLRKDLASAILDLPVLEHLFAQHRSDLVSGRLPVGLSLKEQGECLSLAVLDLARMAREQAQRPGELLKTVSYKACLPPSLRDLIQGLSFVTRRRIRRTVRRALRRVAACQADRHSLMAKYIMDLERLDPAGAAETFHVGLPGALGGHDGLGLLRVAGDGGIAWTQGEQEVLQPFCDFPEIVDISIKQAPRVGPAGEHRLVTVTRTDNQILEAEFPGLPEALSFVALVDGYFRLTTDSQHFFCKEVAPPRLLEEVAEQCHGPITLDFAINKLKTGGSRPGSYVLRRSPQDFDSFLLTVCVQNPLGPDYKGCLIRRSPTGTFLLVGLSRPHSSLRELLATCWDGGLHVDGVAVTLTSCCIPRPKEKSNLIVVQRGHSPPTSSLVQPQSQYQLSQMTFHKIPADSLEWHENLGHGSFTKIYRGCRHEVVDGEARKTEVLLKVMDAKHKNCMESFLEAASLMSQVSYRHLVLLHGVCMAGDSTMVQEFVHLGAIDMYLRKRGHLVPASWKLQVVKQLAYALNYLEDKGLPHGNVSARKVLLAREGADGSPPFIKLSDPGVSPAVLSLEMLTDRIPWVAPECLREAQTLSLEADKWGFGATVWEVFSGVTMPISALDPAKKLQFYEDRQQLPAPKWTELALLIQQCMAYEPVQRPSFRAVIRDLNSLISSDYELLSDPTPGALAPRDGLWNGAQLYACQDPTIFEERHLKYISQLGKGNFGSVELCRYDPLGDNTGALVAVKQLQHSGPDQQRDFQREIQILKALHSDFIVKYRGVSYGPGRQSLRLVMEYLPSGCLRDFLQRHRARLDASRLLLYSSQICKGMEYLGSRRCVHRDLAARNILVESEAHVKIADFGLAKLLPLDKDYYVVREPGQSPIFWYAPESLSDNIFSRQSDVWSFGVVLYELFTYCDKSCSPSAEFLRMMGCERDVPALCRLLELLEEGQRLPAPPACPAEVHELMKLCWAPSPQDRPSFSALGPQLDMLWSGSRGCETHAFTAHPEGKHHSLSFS
Briefly: JAK3 inhibition assay (33P incorporation into poly(Glu)4Tyr). It counts as biochemical. The conditions noted are these: 1 nM JAK3; 1 μM poly(Glu)4Tyr, 5 μM ATP, 25° C.; read-out: JAK3 enzyme inhibition (Ki). As to the method:
(§1) Compounds were screened for their ability to inhibit JAK3 using the assay shown below. Reactions were carried out in a kinase buffer containing 100 mM HEPES (pH 7.4), 1 mM DTT, 10 mM MgCl2, 25 mM NaCl, and 0.01% BSA. Substrate concentrations in the assay were 5 μM ATP (200 uCi/μmole ATP) and 1 μM poly(Glu)4Tyr. Reactions were carried out at 25° C. and 1 nM JAK3.
(§2) To each well of a 96 well polycarbonate plate was added 1.5 μl of a candidate JAK3 inhibitor along with 50 μl of kinase buffer containing 2 μM poly(Glu)4Tyr and 10 μM ATP. This was then mixed and 50 μl of kinase buffer containing 2 nM JAK3 enzyme was added to start the reaction. After 20 minutes at room temperature (25° C.), the reaction was stopped with 50 μl of 20% trichloroacetic acid (TCA) that also contained 0.4 mM ATP. The entire contents of each well were then transferred to a 96 well glass fiber filter plate using a TomTek Cell Harvester. After washing, 60 μl of scintillation fluid was added and ^33P incorporation detected on a Perkin Elmer TopCount.

The next assay deals with JAK-2 enzyme (Homo sapiens, UniProt O60674). Briefly: JAK2 inhibition assay (33P incorporation into poly(Glu)4Tyr). The class given is biochemical. The conditions noted are these: 15 μM poly(Glu)4Tyr, 12 μM ATP. As to the method: as §1, §2
The assays were as described above in Example 36 except that JAK-2 enzyme was used, the final poly(Glu)4Tyr concentration was 15 μM, and final ATP concentration was 12 μM.

As a reminder, the Ki is a measure of affinity in units of concentration, obtained from inhibition or displacement.

Chain of JAK-2 enzyme (O60674 whole entry): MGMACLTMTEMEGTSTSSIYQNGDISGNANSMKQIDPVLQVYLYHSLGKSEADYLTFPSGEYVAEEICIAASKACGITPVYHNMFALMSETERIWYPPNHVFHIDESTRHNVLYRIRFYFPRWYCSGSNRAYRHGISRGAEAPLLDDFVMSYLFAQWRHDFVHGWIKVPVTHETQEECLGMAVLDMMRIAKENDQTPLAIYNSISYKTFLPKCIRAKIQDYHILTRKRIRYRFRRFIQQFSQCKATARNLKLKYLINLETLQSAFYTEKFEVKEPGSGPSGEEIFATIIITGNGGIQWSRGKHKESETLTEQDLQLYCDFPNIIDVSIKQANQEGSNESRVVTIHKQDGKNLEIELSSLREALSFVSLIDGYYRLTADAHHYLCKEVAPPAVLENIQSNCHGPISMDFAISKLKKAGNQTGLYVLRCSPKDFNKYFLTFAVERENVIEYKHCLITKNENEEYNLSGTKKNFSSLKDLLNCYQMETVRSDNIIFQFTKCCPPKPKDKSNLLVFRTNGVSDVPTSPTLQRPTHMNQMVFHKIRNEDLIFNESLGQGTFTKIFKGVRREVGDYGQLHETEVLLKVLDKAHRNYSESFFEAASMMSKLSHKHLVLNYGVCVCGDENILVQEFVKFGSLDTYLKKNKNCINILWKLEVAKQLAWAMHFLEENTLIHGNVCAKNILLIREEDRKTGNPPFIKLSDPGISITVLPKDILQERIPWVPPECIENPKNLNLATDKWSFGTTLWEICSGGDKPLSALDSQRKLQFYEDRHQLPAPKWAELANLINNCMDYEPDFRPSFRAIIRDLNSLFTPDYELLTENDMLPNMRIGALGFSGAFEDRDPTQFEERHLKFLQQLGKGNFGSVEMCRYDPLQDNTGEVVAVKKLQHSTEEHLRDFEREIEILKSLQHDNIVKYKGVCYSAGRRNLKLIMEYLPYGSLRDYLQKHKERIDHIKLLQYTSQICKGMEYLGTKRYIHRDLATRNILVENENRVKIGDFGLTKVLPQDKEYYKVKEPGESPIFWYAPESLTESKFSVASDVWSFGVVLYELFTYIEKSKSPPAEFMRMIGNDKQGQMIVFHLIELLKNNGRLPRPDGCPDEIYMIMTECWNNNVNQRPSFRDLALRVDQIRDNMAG

For the molecule `CN(CC#N)C(=O)c1cc(-c2ncnc3[nH]ccc23)cn1C` [Compound 236], the values for the Ki at JAK3 and on JAK-2 enzyme were 100 to 500 nM and below 100 nM, respectively.
